How the values were obtained:
human S1P1 = human S1P1 (Homo sapiens (Human), UniProt P21453); assay: S1P1 binding assay (33P-S1P radioligand competition, CHO cell membranes); conditions: phosphate examples; read-out: S1P1 Binding
In short: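 Radioligand is 33P-S1P, competing for membranes from human S1P1-expressing CHO cells. Membranes resuspended in 50 mM HEPES pH 7.5, 100 mM NaCl, 1 mM MgCl2, 2 mM EDTA.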

[1] = biological target: S1P1 (membranes prepared from S1P1/CHO cells) (Homo sapiens (Human), UniProt P21453); assay: Receptor [35S] GTPγS binding assay (S1P1 GTPγS); type: biochemical; conditions: phosphate examples; read-out: S1P1 GTPγS
In short: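 Membranes from S1P1-expressing CHO cells (3 μg protein/well) incubated with compound (11-point, 3-fold dilution) and 0.2 nM final [35S]GTPγS, 45 min at room temperature. Assay buffer: 20 mM HEPES pH 7.5, 10 mM MgCl2, 150 mM NaCl, 10 μM GDP, 0.1% fatty-acid-free BSA, 10 μg/ml saponin. Filter-bound radioactivity counted by scintillation; EC50 derived.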

hS1P1/CHO cells = hS1P1/CHO cells (Homo sapiens (Human), UniProt P21453); assay: hS1P1 ERK phosphorylation (S1P1 pERK); type: cell-based; conditions: phosphate examples
In short: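 CHO cells expressing human S1P1, serum-starved 2 h, exposed to compound in HBSS/20 mM HEPES for 7 min at 37° C. Lysates assayed for phospho-ERK by SureFire kit; response given as % activation relative to 10 μM S1P.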

[2] = biological target: S1P3 (membranes prepared from EDG3-Gal5-bla HEK293T cells) (Homo sapiens (Human), UniProt Q99500); assay: Receptor [35S] GTPγS binding assay (S1P3 GTPγS); type: biochemical; conditions: phosphate examples; read-out: S1P3 GTPγS
In short: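 Membranes (3 μg protein/well) from S1P1/CHO cells or EDG3-Gal5-bla HEK293T cells (S1P3) were incubated 45 min at room temperature with 0.2 nM final [35S]GTPγS in HEPES pH 7.5 buffer with 10 μM GDP, MgCl2 and saponin. Bound label counted after filtration; EC50 from 11-point, 3-fold dilutions.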

Sequence of hS1P1/CHO cells (P21453 whole entry): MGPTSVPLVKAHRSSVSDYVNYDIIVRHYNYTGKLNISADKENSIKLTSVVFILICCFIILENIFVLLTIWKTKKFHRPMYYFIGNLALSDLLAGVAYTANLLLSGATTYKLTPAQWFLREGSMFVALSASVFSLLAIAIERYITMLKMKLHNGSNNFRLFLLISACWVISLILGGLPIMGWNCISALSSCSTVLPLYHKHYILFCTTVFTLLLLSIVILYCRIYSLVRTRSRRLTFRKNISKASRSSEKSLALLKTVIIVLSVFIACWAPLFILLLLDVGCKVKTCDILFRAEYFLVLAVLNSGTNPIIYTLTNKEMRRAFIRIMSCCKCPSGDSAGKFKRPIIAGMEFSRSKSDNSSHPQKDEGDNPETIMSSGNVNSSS
Sequence of human S1P1 (P21453 whole entry): as above
Sequence of S1P1 (membranes prepared from S1P1/CHO cells) (P21453 whole entry): as above
Sequence of S1P3 (membranes prepared from EDG3-Gal5-bla HEK293T cells) (Q99500 whole entry): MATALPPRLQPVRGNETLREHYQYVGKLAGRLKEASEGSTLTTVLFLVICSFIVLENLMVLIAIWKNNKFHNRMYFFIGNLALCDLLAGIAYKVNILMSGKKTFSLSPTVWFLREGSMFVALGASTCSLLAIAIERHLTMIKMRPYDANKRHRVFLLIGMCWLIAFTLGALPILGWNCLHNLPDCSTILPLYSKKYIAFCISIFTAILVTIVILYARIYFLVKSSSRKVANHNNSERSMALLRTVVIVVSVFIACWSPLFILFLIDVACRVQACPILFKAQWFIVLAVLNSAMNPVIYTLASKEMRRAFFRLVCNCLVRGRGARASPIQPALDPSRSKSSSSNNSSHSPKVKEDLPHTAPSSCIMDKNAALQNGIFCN

Row | SMILES | IC50 (human S1P1) | EC50 [1] | EC50 (hS1P1/CHO cells) | EC50 [2]
1 | CCOc1cccc(C[C@@H]2CCc3cc([C@H]4CC[C@](N)(COP(=O)(O)O)C4)ccc3C2)c1 [compound 551] | 10 to 100 nM | 10 to 100 nM | 10 to 100 nM | > 625 nM
2 | COCc1cccc(C[C@@H]2CCc3cc([C@H]4CC[C@](N)(COP(=O)(O)O)C4)ccc3C2)c1 [compound 552] | < 10 nM | 10 to 100 nM | 10 to 100 nM | > 625 nM
3 | COc1ccc(C[C@@H]2CCc3cc([C@H]4CC[C@](N)(COP(=O)(O)O)C4)ccc3C2)cc1OC [compound 553] | 100 to 1000 nM | 100 to 1000 nM | < 10 nM | > 625 nM
4 | C=CCCCC[C@@H]1CCc2cc([C@H]3CC[C@](N)(COP(=O)(O)O)C3)ccc2C1 [compound 555] | < 10 nM | 10 to 100 nM | 10 to 100 nM | > 625 nM
5 | CC(C)=CCCC[C@@H]1CCc2cc([C@H]3CC[C@](N)(COP(=O)(O)O)C3)ccc2C1 [compound 556] | 1000 to 10000 nM | < 10 nM | < 10 nM | > 625 nM
6 | N[C@]1(COP(=O)(O)O)CC[C@H](c2ccc3c(c2)CC[C@@H](CCCC2CCOCC2)C3)C1 [compound 557] | 10 to 100 nM | 10 to 100 nM | 10 to 100 nM | > 625 nM
7 | N[C@]1(COP(=O)(O)O)CC[C@H](c2ccc3c(c2)CC[C@@H](CCC2CCOCC2)C3)C1 [compound 558] | < 10 nM | < 10 nM | < 10 nM | > 625 nM
8 | CC(C)Oc1ccc(C[C@@H]2CCc3cc([C@H]4CC[C@](N)(COP(=O)(O)O)C4)ccc3C2)cc1 [compound 559] | 100 to 1000 nM | 100 to 1000 nM | 10 to 100 nM | > 625 nM
9 | CC(C)Oc1cccc(C[C@@H]2CCc3cc([C@H]4CC[C@](N)(COP(=O)(O)O)C4)ccc3C2)c1 [compound 560] | 10 to 100 nM | < 10 nM | < 10 nM | > 625 nM
10 | CN(C)CCCCC[C@@H]1CCc2cc([C@H]3CC[C@](N)(COP(=O)(O)O)C3)ccc2C1 [compound 561] | 100 to 1000 nM | 100 to 1000 nM | 10 to 100 nM | > 625 nM
11 | CN(C)C(=O)Cc1ccc(C[C@@H]2CCc3cc([C@H]4CC[C@](N)(COP(=O)(O)O)C4)ccc3C2)cc1 [compound 562] | 100 to 1000 nM | 100 to 1000 nM | 10 to 100 nM | > 625 nM
12 | COc1ccccc1CCC[C@@H]1CCc2cc([C@H]3CC[C@](N)(COP(=O)(O)O)C3)ccc2C1 [compound 563] | 100 to 1000 nM | 100 to 1000 nM | 100 to 1000 nM | > 625 nM
13 | COc1cccc(CCC[C@@H]2CCc3cc([C@H]4CC[C@](N)(COP(=O)(O)O)C4)ccc3C2)c1 [compound 564] | 10 to 100 nM | 10 to 100 nM | 10 to 100 nM | > 625 nM
14 | COc1cccc(C[C@H]2CCc3cc([C@H]4CC[C@](N)(COP(=O)(O)O)C4)ccc3C2)c1 [compound 567] | < 10 nM | < 10 nM | 10 to 100 nM | > 625 nM
15 | COc1ccc(C[C@H]2CCc3cc([C@H]4CC[C@](N)(COP(=O)(O)O)C4)ccc3C2)cc1 [compound 568] | 10 to 100 nM | < 10 nM | < 10 nM | > 625 nM
16 | N[C@]1(COP(=O)(O)O)CC[C@H](c2ccc3c(c2)CC[C@H](c2ccccc2)C3)C1 [compound 569] | < 10 nM | 10 to 100 nM | < 10 nM | > 625 nM
17 | N[C@]1(COP(=O)(O)O)CC[C@H](c2ccc3c(c2)CC[C@@H](Cc2ccccc2)C3)C1 [compound 571] | 10 to 100 nM | 10 to 100 nM | 10 to 100 nM | > 625 nM

Row | SMILES | IC50 (human S1P1) | EC50 [1] | EC50 (hS1P1/CHO cells) | EC50 [2]
18 | N[C@]1(COP(=O)(O)O)CC[C@H](c2ccc3c(c2)CC[C@H](Cc2ccccc2)C3)C1 [compound 572] | < 10 nM | < 10 nM | 10 to 100 nM | > 625 nM
19 | N[C@]1(COP(=O)(O)O)CC[C@H](c2ccc3c(c2)CC[C@@H](CCc2ccccc2)C3)C1 [compound 573] | 10 to 100 nM | 10 to 100 nM | 10 to 100 nM | > 625 nM
20 | CCCCCC1CCc2cc([C@H]3CC[C@](N)(COP(=O)(O)O)C3)ccc2C1 (stereo partly drawn) [compound 575] | 10 to 100 nM | 10 to 100 nM | < 10 nM | > 625 nM
21 | CCCCCC1CCc2cc([C@H]3CC[C@](N)(COP(=O)(O)O)C3)ccc2C1 (stereo partly drawn) [compound 576] | 10 to 100 nM | 100 to 1000 nM | 10 to 100 nM | > 625 nM
22 | CCCCC[C@@H]1CCc2cc([C@@H]3CC[C@@](N)(COP(=O)(O)O)C3)ccc2C1 [compound 577] | < 10 nM | < 10 nM | < 10 nM | > 625 nM
23 | CCCCC[C@H]1CCc2cc([C@@H]3CC[C@@](N)(COP(=O)(O)O)C3)ccc2C1 [compound 578] | < 10 nM | 10 to 100 nM | < 10 nM | > 625 nM
24 | C#CCCOCCO[C@H]1CCc2cc([C@@H]3CC[C@@](N)(COP(=O)(O)O)C3)ccc2C1 [compound 586] | < 10 nM | 10 to 100 nM | < 10 nM | > 625 nM
25 | CC(C)CCOCCO[C@H]1CCc2cc([C@H]3CC[C@](N)(COP(=O)(O)O)C3)ccc2C1 [compound 587] | < 10 nM | 10 to 100 nM | < 10 nM | > 625 nM
26 | CCCCOCCO[C@H]1CCc2cc([C@@H]3CC[C@@](N)(COP(=O)(O)O)C3)ccc2C1 [compound 591] | 10 to 100 nM | 10 to 100 nM | < 10 nM | > 625 nM
27 | CCCCOCCO[C@@H]1CCc2cc([C@@H]3CC[C@@](N)(COP(=O)(O)O)C3)ccc2C1 [compound 592] | < 10 nM | 10 to 100 nM | < 10 nM | > 625 nM
28 | COc1ccc(CC[C@H]2CCc3cc([C@@H]4CC[C@@](N)(COP(=O)(O)O)C4)ccc3C2)cc1 [compound 594] | 10 to 100 nM | 10 to 100 nM | 100 to 1000 nM | > 625 nM
29 | COCCC[C@H]1CCc2cc([C@@H]3CC[C@@](N)(COP(=O)(O)O)C3)ccc2C1 [compound 595] | < 10 nM | 10 to 100 nM | < 10 nM | > 625 nM
30 | COCCCC[C@H]1CCc2cc([C@@H]3CC[C@@](N)(COP(=O)(O)O)C3)ccc2C1 [compound 596] | < 10 nM | 10 to 100 nM | < 10 nM | > 625 nM
31 | COCCCCC[C@H]1CCc2cc([C@@H]3CC[C@@](N)(COP(=O)(O)O)C3)ccc2C1 [compound 598] | 10 to 100 nM | 10 to 100 nM | < 10 nM | > 625 nM
32 | CC(C)OCCC[C@H]1CCc2cc([C@@H]3CC[C@@](N)(COP(=O)(O)O)C3)ccc2C1 [compound 600] | 10 to 100 nM | < 10 nM | < 10 nM | > 625 nM
33 | CC(C)OCCC[C@@H]1CCc2cc([C@@H]3CC[C@@](N)(COP(=O)(O)O)C3)ccc2C1 [compound 602] | < 10 nM | < 10 nM | < 10 nM | > 625 nM

Reference: US9522888B2, “Substituted bicyclic compounds” (BRISTOL-MYERS SQUIBB COMPANY, priority 2014, dated 2016)
